Test results from patent publication US20240408096A1, “DOSING REGIMENS FOR ORAL ALK2 KINASE INHIBITORS” (BioCryst Pharmaceuticals, Inc., priority 2020, published 2024).
Entries after “also recorded” stand apart in the source; their conditions may differ.

Columns and labels:
[1] = molecular target: CYP2E1 (Homo sapiens, UniProt P05181); assay: CYP inhibition in vitro; format: in vitro ADME
[2] = Phase 1 Part 2 (MAD) plasma PK; format: in vivo, human; conditions: for Cmax / AUC0-24 / Tmax / AUCtau / Ctau / t1/2: Part 2 MAD; for Cmax / AUC0-24 / AUCtau / Ctau: geometric mean (CV%); for Tmax / t1/2: median (min, max)
Protocol: (§1) Four sequential MAD cohorts were dosed.
(§2) For each cohort of Part 2, the daily dose of study drug was administered as a single dose (1 time daily or QD). Similar to Part 1 of the study, following a screening period to determine eligibility, subjects in each cohort entered the CRU on the […] of Day −1. Study eligibility was re-confirmed upon admission to the CRU, and subjects remained in the CRU overnight prior to dosing on Day 1. Subjects received a final morning dose of study drug on the last day of dosing. Subjects were discharged from the CRU following sample collection on Day 11. Dosage administration was supervised by study personnel and all subjects completed dosing per protocol. […] Subjects returned to the CRU on Day 23 (+2 days) for final follow-up safety assessments.
Serial venous blood samples were withdrawn via an indwelling cannula or by venipuncture according to the schedule in Tables 4 and 5 for Parts 1 and 2, respectively. Samples were collected into 4 mL lithium heparin tubes. The acceptable deviations from the nominal blood sampling times in Part 1 and Part 2 are as follows: the pre-dose blood sample will be taken ≤1 hour before dosing; 0 to 1 hour post-dose samples will be taken within +2 minutes of the nominal post-dose sampling time; >1 to 12 hours post-dose samples will be taken within +10 minutes of the nominal post-dose sampling time; and >12 hours post-dose samples will be taken within +30 minutes of the nominal post-dose sampling time if subjects are resident in the clinic. […]
In all derivations of PK parameters, 0 will be substituted for concentrations below the quantification limit (BQL) of the assay. Samples that are BQL but are between 2 samples with detectable concentrations will be excluded from PK analysis.
Dose proportionality was evaluated over all fasted doses within a study part based upon AUC0-inf (Part 1), AUCtau (Part 2), AUC0-t, and Cmax using the power model. The analysis was performed for Day 1 (Parts 1 and 2) and Day 7 (Part 2).
Dose proportionality for PK parameters was assessed by restricted maximum likelihood using SAS PROC MIXED (SAS STAT software, Cary N.C.). The mean slope was estimated from the power model and the corresponding 90% confidence interval (CI) calculated. Dose proportionality was also examined using an analysis of variance (ANOVA) method, where PK parameters for each dose were compared with a reference dose on a pair-wise basis. The ratio of geometric least squares (GLS) means and the corresponding 90% CI was estimated for each PK parameter of interest.
Accumulation ratios were calculated using AUC values from serial sampling after the first and last dose in Part 2. […] A mixed-effects model with a fixed effect for day and a random subject effect was used to estimate the difference between AUCtau and AUC0-t on the log scale.
Time to steady-state was evaluated in Part 2 using Ctrough (observed plasma concentration immediately before dosing) levels, where sufficient samples existed to determine steady state. The following timepoints were used in the analysis for once daily dosing: 24, 48, and 72 hours post dose (for Day 1) and pre-dose and 24 hours post dose on the last day of dosing (Day 7).

[3] = Phase 1 Parts 1 and 2 blood pressure pharmacodynamics / exposure-response; format: in vivo, human
Description: Where possible, systolic and diastolic BP measurements will be used to determine the change from baseline between each active treatment relative to that obtained on subjects receiving placebo within a study part. At each time point blood pressure data is collected, an individual subject's change from baseline will be calculated.

[4] = plasma protein binding, human; format: in vitro ADME; conditions: in vitro
[5] = test system: G-protein coupled receptor (GPCRs) related kinases; assay: off-target screening study
[6] = Phase 1 Part 2 (MAD) safety and tolerability; format: in vivo, human; conditions: healthy subjects
Protocol: The primary outcome measure of Part 1 and Part 2 will be: (1) measurement of the safety and tolerability by subject incidence of graded treatment-emergent adverse events (TEAEs), laboratory abnormalities, and changes to vital signs, ECGs, cardiac telemetry, and physical examination findings.
as §1, §2

[7] = molecular target: T1, CYP2B6 (Homo sapiens, UniProt P20813); assay: CYP inhibition in vitro; format: in vitro ADME
T1 sequence (P20813 1-491): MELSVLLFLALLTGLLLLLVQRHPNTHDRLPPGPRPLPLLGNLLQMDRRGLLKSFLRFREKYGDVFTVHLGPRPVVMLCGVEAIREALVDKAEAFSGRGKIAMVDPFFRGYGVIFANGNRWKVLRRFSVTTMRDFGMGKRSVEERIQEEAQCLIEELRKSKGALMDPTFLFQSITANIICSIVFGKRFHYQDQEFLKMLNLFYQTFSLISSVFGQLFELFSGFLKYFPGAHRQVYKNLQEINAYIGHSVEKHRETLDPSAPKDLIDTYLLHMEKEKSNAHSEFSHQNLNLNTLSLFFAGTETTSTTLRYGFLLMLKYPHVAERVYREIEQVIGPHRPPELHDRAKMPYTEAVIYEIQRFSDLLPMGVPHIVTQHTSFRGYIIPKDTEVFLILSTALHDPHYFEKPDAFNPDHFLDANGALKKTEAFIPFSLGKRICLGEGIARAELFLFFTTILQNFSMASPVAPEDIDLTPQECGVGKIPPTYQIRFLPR

[8] = all cohorts and placebo subjects

Sequence of CYP2E1 (P05181 whole entry): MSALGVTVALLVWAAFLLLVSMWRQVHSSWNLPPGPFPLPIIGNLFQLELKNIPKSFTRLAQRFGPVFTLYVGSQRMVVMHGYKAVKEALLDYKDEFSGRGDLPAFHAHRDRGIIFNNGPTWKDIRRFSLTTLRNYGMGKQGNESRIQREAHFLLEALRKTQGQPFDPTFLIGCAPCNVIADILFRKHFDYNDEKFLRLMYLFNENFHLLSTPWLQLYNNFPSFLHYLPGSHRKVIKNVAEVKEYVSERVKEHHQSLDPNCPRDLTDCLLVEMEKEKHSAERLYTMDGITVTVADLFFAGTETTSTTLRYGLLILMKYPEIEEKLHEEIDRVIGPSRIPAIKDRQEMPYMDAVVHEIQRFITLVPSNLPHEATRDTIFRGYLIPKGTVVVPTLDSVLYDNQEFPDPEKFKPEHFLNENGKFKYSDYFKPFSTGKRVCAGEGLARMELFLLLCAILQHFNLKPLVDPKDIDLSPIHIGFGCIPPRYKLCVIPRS

CYP2E1 inhibition [1]: not an inhibitor
Day 1 AUC0-24, geometric least square mean ([2]; 5 mg QD): 797.89 ng·h/mL
Day 7 AUCtau, geometric least square mean ([2]; 5 mg QD): 915.48 ng·h/mL
Day 1 AUC0-24, geometric least square mean ([2]; 10 mg QD): 1703.36 ng·h/mL
Day 7 AUCtau, geometric least square mean ([2]; 10 mg QD): 2022.93 ng·h/mL
Day 1 AUC0-24, geometric least square mean ([2]; 15 mg QD): 2204.47 ng·h/mL
Day 7 AUCtau, geometric least square mean ([2]; 15 mg QD): 2303.26 ng·h/mL
Day 1 AUC0-24, geometric least square mean ([2]; 20 mg QD): 3159.74 ng·h/mL
Day 7 AUCtau, geometric least square mean ([2]; 20 mg QD): 3184.88 ng·h/mL
median Tmax ([2]; Part 2, Days 1 and 7, all dosing cohorts): approximately 2.0 hours
time to steady state ([2]; Part 2, QD dosing, from trough concentrations): ≤ 3 days
accumulation ([2]; Part 2, each MAD cohort, 7 days QD): No accumulation or minimal accumulation
Cmax ([2]; Day 1, 5 mg QD oral, fasted): 105.0 (45.9) ng/ml
AUC0-24 ([2]; Day 1, 5 mg QD): 797.9 (37.8) ng · h/mL
Tmax ([2]; Day 1, 5 mg QD): 2.009 (1.01, 4.01) h
Cmax ([2]; Day 1, 10 mg QD oral, fasted): 217.0 (46.2) ng/ml
AUC0-24 ([2]; Day 1, 10 mg QD): 1703 (37.4) ng · h/mL
Tmax ([2]; Day 1, 10 mg QD): 2.009 (2.01, 3.01) h
Cmax ([2]; Day 1, 15 mg QD oral, fasted): 324.2 (34.9) ng/ml
AUC0-24 ([2]; Day 1, 15 mg QD): 2204 (39.0) ng · h/mL
Tmax ([2]; Day 1, 15 mg QD): 2.006 (1.01, 4.00) h
Cmax ([2]; Day 1, 20 mg QD oral, fasted): 464.1 (26.1) ng/ml
AUC0-24 ([2]; Day 1, 20 mg QD): 3160 (21.2) ng · h/mL
Tmax ([2]; Day 1, 20 mg QD): 2.007 (2.00, 3.00) h
AUCtau ([2]; Day 7, 5 mg QD): 915.5 (40.7) ng · h/mL
Cmax ([2]; Day 7, 5 mg QD): 117.0 (44.4) ng/ml
Ctau ([2]; Day 7, 5 mg QD): 10.70 (72.6) ng/ml
Tmax ([2]; Day 7, 5 mg QD): 2.007 (1.01, 3.03) h
t1/2 ([2]; Day 7, 5 mg QD): 8,846 (4.73, 25.1) h
AUCtau ([2]; Day 7, 10 mg QD): 2023 (29.7) ng · h/mL
Cmax ([2]; Day 7, 10 mg QD): 238.0 (22.6) ng/ml
Ctau ([2]; Day 7, 10 mg QD): 25.47 (68.1) ng/ml
Tmax ([2]; Day 7, 10 mg QD): 2.021 (2.01, 3.01) h
t1/2 ([2]; Day 7, 10 mg QD): 8.512 (6.09, 12.3) h
AUCtau ([2]; Day 7, 15 mg QD): 2303 (24.9) ng · h/mL
Cmax ([2]; Day 7, 15 mg QD): 333.5 (29.7) ng/ml
Ctau ([2]; Day 7, 15 mg QD): 19.02 (59.6) ng/ml
Tmax ([2]; Day 7, 15 mg QD): 2.006 (1,01, 3.00) h
t1/2 ([2]; Day 7, 15 mg QD): 7.534 (4.05, 12.2) h
AUCtau ([2]; Day 7, 20 mg QD): 3185 (24.4) ng · h/mL
Cmax ([2]; Day 7, 20 mg QD): 413.9 (14.9) ng/ml
Ctau ([2]; Day 7, 20 mg QD): 30.75 (66.5) ng/ml
Tmax ([2]; Day 7, 20 mg QD): 2.001 (1.00, 3.00) h
t1/2 ([2]; Day 7, 20 mg QD): 8.332 (4.61, 11.0) h
plasma protein binding [4]: ≥ 99.9%
off-target effects [5]: minimal off-target effects
CYP2B6 inhibition [7]: not an inhibitor
Compound: COc1cc(-n2cnc(Nc3nc(N4CCC[C@H]4C(N)=O)nc4sccc34)c2)cc(OC)c1OC.O=C(O)CC(O)(CC(=O)O)C(=O)O [Compound A]
dose proportionality of plasma exposure ([2]; Part 2, multiple oral doses 5 to 20 mg, healthy subjects): exhibits dose proportionality; also recorded: approximately linear and dose proportional
dose proportionality of steady state Cmax ([2]; Part 2 multiple ascending oral dose cohorts (FIG. 7)): approximately linear and dose-proportional
dose proportionality of steady state AUCtau ([2]; Part 2 multiple ascending oral dose cohorts (FIG. 8)): approximately linear and dose-proportional
correlation of BP with dose or exposure ([3]; Parts 1 and 2): no meaningful correlation
slope of Δ diastolic BP-concentration model [3, 8]: 0.00151
slope of Δ systolic BP-concentration model [3, 8]: 0.00686
grade 3 or 4 adverse events ([6]; Part 2, 5 mg to 20 mg QD over 7 days): no grade 3 or 4 adverse events
safety and tolerability ([6]; Part 2, multiple ascending oral doses 5 mg to 20 mg QD over 7 days): safe and generally well tolerated
